Data set [1] relates to COc1cc2occ(C(=O)OC(C)(C)C)c2cc1OCc1nc2ccc(OS(=O)(=O)O)cc2s1. The following applies: Homo sapiens; 400 uM.
Description: Non-competitive inhibition of human thrombin using spectrozyme TH as substrate assessed as reduction in substrate Vmax at 400 uM by Michaelis-Menten kinetics
Data set [2] has as its target T1, Coagulation factor VII (Homo sapiens) (UniProt P08709).
T1 sequence (whole entry): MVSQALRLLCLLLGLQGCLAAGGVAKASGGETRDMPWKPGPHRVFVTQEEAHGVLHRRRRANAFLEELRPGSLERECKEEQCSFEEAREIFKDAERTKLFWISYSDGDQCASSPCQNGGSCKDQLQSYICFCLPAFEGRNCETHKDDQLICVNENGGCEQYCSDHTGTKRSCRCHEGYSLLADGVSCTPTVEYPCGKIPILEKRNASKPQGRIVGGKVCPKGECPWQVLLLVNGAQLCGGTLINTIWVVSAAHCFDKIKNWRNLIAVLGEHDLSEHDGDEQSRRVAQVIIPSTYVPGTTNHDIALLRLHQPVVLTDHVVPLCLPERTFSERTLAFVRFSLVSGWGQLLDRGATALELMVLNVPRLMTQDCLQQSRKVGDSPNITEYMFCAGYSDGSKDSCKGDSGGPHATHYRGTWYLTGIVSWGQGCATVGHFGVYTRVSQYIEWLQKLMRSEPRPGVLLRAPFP
The experiment in a line: Inhibition of human factor 7a assessed as residual activity at 500 uM by spectrophotometric assay.

Data set [3] has as its target Coagulation factor IX (Homo sapiens) (UniProt P00740). The experiment in a line: Inhibition of human factor 9a assessed as residual activity at 500 uM by spectrophotometric assay.
In data set [4] the target is Coagulation factor X (Homo sapiens) (UniProt P00742). As to the kind of experiment: Inhibition of human factor 10a assessed as residual activity at 500 uM by spectrophotometric assay.
In data set [5] the target is Coagulation factor XI (Homo sapiens) (UniProt P03951). As to the kind of experiment: Inhibition of human factor 11a assessed as residual activity at 500 uM by spectrophotometric assay.
Data set [6] deals with T2, Coagulation factor XII (Homo sapiens) (UniProt P00748).
T2 sequence (whole entry): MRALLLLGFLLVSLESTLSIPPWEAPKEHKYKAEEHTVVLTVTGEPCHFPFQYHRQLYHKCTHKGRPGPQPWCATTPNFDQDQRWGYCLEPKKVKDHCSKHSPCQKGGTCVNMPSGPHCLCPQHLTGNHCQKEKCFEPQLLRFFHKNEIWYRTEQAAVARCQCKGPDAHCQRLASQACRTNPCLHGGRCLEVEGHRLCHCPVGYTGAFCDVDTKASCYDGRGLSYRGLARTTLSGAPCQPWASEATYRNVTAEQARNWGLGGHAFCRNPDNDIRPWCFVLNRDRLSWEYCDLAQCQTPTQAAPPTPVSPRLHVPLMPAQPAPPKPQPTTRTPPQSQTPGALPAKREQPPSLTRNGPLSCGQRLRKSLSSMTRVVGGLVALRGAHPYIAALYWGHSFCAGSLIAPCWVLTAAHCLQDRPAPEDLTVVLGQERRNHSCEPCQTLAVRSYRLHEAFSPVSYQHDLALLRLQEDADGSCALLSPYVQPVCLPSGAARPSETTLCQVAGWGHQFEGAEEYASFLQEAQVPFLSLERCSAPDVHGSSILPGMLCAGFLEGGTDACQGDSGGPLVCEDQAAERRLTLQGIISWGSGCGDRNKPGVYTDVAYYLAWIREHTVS
As to the kind of experiment: Inhibition of human factor 12a assessed as residual activity at 500 uM by spectrophotometric assay.

Data set [7] concerns the target Prothrombin (Homo sapiens) (UniProt P00734). As to the kind of experiment: Inhibition of human thrombin using spectrozyme TH as substrate assessed as residual activity at 500 uM by spectrophotometric assay.
Data set [8] shares this target. As to the kind of experiment: Non-competitive inhibition of human thrombin using spectrozyme TH as substrate assessed as effect on substrate Km at 400 uM by Michaelis-Menten kinetics.

Active and inactive are the calls of the source. No cut-off for these calls is given here.

Sequence of Coagulation factor IX (Homo sapiens) (P00740 47-191 limits assumed): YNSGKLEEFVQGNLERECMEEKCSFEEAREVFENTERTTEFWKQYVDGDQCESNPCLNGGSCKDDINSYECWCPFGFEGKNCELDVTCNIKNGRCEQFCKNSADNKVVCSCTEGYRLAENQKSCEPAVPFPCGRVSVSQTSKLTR
Sequence of Coagulation factor IX (Homo sapiens) (P00740 227-461 limits assumed): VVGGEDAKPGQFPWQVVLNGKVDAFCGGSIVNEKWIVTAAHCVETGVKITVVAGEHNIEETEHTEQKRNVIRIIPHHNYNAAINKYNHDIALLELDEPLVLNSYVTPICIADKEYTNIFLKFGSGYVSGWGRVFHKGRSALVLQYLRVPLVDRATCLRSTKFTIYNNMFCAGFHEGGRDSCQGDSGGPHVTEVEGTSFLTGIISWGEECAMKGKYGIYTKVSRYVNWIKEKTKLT
Sequence of Coagulation factor XI (Homo sapiens) (P03951 19-387 limits assumed): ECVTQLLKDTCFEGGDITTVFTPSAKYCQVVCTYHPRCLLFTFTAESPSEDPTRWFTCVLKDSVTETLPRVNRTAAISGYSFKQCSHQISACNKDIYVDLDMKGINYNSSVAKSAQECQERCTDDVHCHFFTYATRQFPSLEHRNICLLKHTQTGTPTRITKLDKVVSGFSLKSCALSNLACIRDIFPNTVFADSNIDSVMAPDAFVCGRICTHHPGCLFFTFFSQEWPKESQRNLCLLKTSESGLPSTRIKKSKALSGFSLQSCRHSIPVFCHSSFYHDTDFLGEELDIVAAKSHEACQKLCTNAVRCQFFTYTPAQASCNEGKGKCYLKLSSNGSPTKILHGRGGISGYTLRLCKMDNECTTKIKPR
Sequence of Coagulation factor XI (Homo sapiens) (P03951 388-625 limits assumed): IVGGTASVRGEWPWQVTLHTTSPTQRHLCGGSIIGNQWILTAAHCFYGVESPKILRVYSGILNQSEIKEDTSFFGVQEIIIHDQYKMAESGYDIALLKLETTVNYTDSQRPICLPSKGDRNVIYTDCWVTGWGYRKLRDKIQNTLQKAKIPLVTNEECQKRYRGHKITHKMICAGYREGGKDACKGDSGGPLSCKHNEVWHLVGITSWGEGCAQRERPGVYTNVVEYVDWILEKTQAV
Sequence of Coagulation factor X (Homo sapiens) (P00742 41-179 limits assumed): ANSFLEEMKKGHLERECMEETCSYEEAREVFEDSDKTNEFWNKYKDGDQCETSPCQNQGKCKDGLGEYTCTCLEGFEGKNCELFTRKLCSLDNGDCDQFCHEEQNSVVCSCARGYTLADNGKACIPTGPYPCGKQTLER
Sequence of Coagulation factor X (Homo sapiens) (P00742 235-488 limits assumed): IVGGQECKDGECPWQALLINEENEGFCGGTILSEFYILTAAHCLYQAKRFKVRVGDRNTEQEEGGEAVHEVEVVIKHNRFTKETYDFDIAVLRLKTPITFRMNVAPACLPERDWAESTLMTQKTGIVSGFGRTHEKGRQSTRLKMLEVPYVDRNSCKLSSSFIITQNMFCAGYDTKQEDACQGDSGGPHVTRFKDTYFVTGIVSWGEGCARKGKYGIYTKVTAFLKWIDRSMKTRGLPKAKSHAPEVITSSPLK

Consider “Prothrombin (Homo sapiens) (from UniProt P00734)”, for which, in data set [1], the Vmax amounted to 24.5 mAU/min/µM.
On to `COc1cc2occ(C(=O)OC(C)(C)C)c2cc1OCc1nc2ccc(OS(=O)(=O)O)cc2s1`, for which the Activity came out at 98% in data set [2]; 101% in data set [3]; 22% in data set [4]; 0% in data set [5]; 100% in data set [6]; 30% in data set [7]. The inhibition result in data set [8] is “Active”.
For the compound `Cc1nc2ccc(OS(=O)(=O)O)cc2s1`, the Activity was determined as 91% in data set [2]; 94% in data set [3]; 77% in data set [4]; 52% in data set [5]; 95% in data set [6]; 99% in data set [7].
In the case of `Cc1nc2ccc(OCc3nc4ccc(OS(=O)(=O)O)cc4s3)cc2s1`, the Activity in data set [2] stood at 102%; in data set [3], 110%; in data set [4] it was 105%; in data set [5], 120%; in data set [6], 97%; in data set [7], 48%.
With `CCOC(=O)c1c(Cc2ccccc2)oc2cc(OC)c(OCc3nc4ccc(OS(=O)(=O)O)cc4s3)cc12`, the Activity in data set [2] worked out at 100%; in data set [3] it was 90%; in data set [4] it was 90%; in data set [5], 88%; in data set [6], 96%; in data set [7] it was 108%.
Regarding `CCOC(=O)c1c(C)oc2cc(OC)c(OCc3oc4cc(OC)c(OCc5nc6ccc(OS(=O)(=O)O)cc6s5)cc4c3C(=O)OCC)cc12`, the Activity in data set [2] amounted to 100%; in data set [3], 82%; in data set [4], 98%; in data set [5], 62%; in data set [6] it was 100%; in data set [7], 104%.
In the case of `CCOC(=O)c1c(COc2cc3c(C(=O)OCC)c(Cc4ccccc4)oc3cc2OC)[nH]c2ccc(OS(=O)(=O)O)cc12`, the Activity in data set [2] stood at 109%; in data set [3] it was 98%; in data set [4] it was 37%; in data set [5], 0%; in data set [6], 100%; in data set [7], 29%.
For `CCOC(=O)c1c(C)[nH]c2ccc(OS(=O)(=O)O)cc12`, the Activity in data set [2] amounted to 90%; in data set [3] it was 98%; in data set [4], 120%; in data set [5], 114%; in data set [6], 90%; in data set [7], 100%.
Take `CCOC(=O)c1c(C)[nH]c2ccc(OCc3c(C(=O)OCC)c4cc(OS(=O)(=O)O)ccc4n3C(=O)OC(C)(C)C)cc12`: the Activity was found to be 99% in data set [2]; 98% in data set [3]; 0% in data set [4]; 0% in data set [5]; 92% in data set [6]; 42% in data set [7].
Turning to `CCOC(=O)c1c(COc2cc3c(C(=O)OCC)coc3cc2OC)[nH]c2ccc(OS(=O)(=O)O)cc12`, the Activity in data set [2] stood at 87%; in data set [3], 98%; in data set [4] it was 34%; in data set [5], 111%; in data set [6], 97%; in data set [7], 102%.
As for `CCOC(=O)c1c(COc2cc3c(C(=O)OCC)c(COc4cc5c(C(=O)OCC)c(C)oc5cc4OC)oc3cc2OC)[nH]c2ccc(OS(=O)(=O)O)cc12`, the Activity in data set [2] is 92%; in data set [3], 109%; in data set [4], 33%; in data set [5], 16%; in data set [6] it was 97%; in data set [7] it was 46%.

The record behind these values is ChEMBL document CHEMBL3351582, “A simple, general approach of allosteric coagulation enzyme inhibition through monosulfated hydrophobic scaffolds” (Bioorg Med Chem Lett, 2014).
